According to ChEMBL document CHEMBL1145245, “Uracils as potent antagonists of the human gonadotropin-releasing hormone receptor without atropisomers” (Bioorg Med Chem Lett, 2005):

What follows are compounds tested against T1, Gonadotropin-releasing hormone receptor (Homo sapiens, UniProt P30968) (assay: Binding affinity towards human gonadotropin-releasing hormone receptor (GNRHR) using GnRH peptide as radioligand).
T1 sequence (P30968 whole entry): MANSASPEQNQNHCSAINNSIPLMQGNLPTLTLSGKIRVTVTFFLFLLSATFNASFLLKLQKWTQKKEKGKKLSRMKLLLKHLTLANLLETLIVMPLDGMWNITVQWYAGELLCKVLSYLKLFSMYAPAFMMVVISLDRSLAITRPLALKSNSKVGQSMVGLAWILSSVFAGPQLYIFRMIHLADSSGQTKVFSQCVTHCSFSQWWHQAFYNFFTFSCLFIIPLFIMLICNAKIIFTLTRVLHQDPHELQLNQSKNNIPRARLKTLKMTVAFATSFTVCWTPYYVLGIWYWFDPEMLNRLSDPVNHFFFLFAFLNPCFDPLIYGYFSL
`N[C@@H](Cn1c(=O)c(-c2ccc(C(F)(F)F)cc2Cl)cn(Cc2c(F)cccc2C(F)(F)F)c1=O)c1ccccc1` gave a Ki of 200 nM. With `N[C@@H](Cn1c(=O)c(-c2ccccc2F)cn(Cc2c(F)cccc2C(F)(F)F)c1=O)c1ccccc1` the Ki was 8 nM. `COc1cccc(-c2cn(Cc3c(F)cccc3S(=O)(=O)C(C)C)c(=O)n(C[C@H](N)c3ccccc3)c2=O)c1F` showed a Ki of 30 nM. `COc1cccc(-c2cn(Cc3c(F)cccc3SC)c(=O)n(C[C@H](N)c3ccccc3)c2=O)c1F` showed a Ki of 19 nM. For `COc1cccc(-c2cn(Cc3c(F)cccc3S(=O)(=O)N(C)C)c(=O)n(C[C@H](N)c3ccccc3)c2=O)c1F`, the Ki was 120 nM. For `COc1cccc(-c2cn(Cc3c(F)cccc3Cl)c(=O)n(C[C@H](N)c3ccccc3)c2=O)c1F`, the Ki was 1.4 nM. Work on `COc1cccc(-c2cn(Cc3c(F)cccc3S(=O)(=O)N3CCOCC3)c(=O)n(C[C@H](N)c3ccccc3)c2=O)c1F` yielded a Ki of 1400 nM. `N[C@@H](Cn1c(=O)c(-c2cccc(OCC(F)(F)F)c2F)cn(Cc2c(F)cccc2C(F)(F)F)c1=O)c1ccccc1` gave a Ki of 8.2 nM. Compound `CC(C)Oc1cccc(-c2cn(Cc3c(F)cccc3C(F)(F)F)c(=O)n(C[C@H](N)c3ccccc3)c2=O)c1F` has a Ki of 6.3 nM. `N[C@@H](Cn1c(=O)c(-c2cccc(O)c2F)cn(Cc2c(F)cccc2F)c1=O)c1ccccc1` was tested, and the Ki was 660 nM. `COc1cccc(-c2cn(Cc3c(F)cccc3S(=O)(=O)CCO)c(=O)n(C[C@H](N)c3ccccc3)c2=O)c1F` gave a Ki of 9.1 nM. With `CS(=O)(=O)c1cccc(C(F)(F)F)c1Cn1cc(-c2ccccc2Cl)c(=O)n(C[C@H](N)c2ccccc2)c1=O` the Ki was 3100 nM. `N[C@@H](Cn1c(=O)c(-c2cccc(O)c2F)cn(Cc2c(F)cccc2C(F)(F)F)c1=O)c1ccccc1` showed a Ki of 18 nM. `COc1cccc(-c2cn(Cc3c(F)cccc3F)c(=O)n(C[C@H](N)c3ccccc3)c2=O)c1Cl` gave a Ki of 1 nM. For `COc1cccc(-c2cn(Cc3c(F)cccc3C(F)(F)F)c(=O)n(C[C@H](N)c3ccccc3)c2=O)c1Cl`, the Ki was 0.45 nM. In the case of `CCOc1cccc(-c2cn(Cc3c(F)cccc3C(F)(F)F)c(=O)n(C[C@H](N)c3ccccc3)c2=O)c1F`, the Ki is reported as 1.8 nM. In the case of `Cc1ccc(-c2cn(Cc3c(F)cccc3C(F)(F)F)c(=O)n(C[C@H](N)c3ccccc3)c2=O)c(Cl)c1`, the Ki is reported as 2.6 nM. With `N[C@@H](Cn1c(=O)c(-c2ccccc2C(F)(F)F)cn(Cc2c(F)cccc2C(F)(F)F)c1=O)c1ccccc1` the Ki was 4 nM.
